Results reported in paper PMC5995184, “Potent anti-leukemic activity of a specific cyclin-dependent kinase 9 inhibitor in mouse models of chronic lymphocytic leukemia” (Oncotarget, 2018).
Where two headings read alike, the source gives them in different places.

Key:
[1] = tested on: non-malignant normal donor B cells; test: Normal donor B cell viability (Annexin V/DAPI, absolute counts); assay type: cell-based; conditions: Homo sapiens, read-out: IC50, viable non-malignant B cells
Experimental: The MEC-1 cell line was obtained from the DSMZ (Braunschweig, Germany) and was cultured in RPMI (10% fetal bovine serum). A LDC526 stock solution was prepared with DMSO, diluted and added to the cultures to reach the specified concentrations. Samples (percentage of CD19+CD5+ CLL cells >90%) of n=37 CLL patients (Table 1) and n=6 healthy normal donor controls were used for experiments after obtaining informed consent according to institutional guidelines, approved by the Ethics Commission of the University of Essen-Duisburg. Peripheral blood mononuclear cells (PBMC) were isolated using Lymphoprep ([…] Technologies, Cologne, Germany) density gradient centrifugation and were used directly for NSG transplantation or in vitro experiments. Untouched normal donor B cells were isolated with a B cell isolation kit (Miltenyi, Bergisch Gladbach, Germany) according to the manufacturer’s instructions. […]
Apoptosis and cell death were determined by using Annexin V (BD Biosciences, Heidelberg, Germany) and 4′,6-Diamidin-2-phenylindol (DAPI, Sigma-Aldrich) staining. […] Flow cytometric data were analyzed with BD FACSDiva or FlowJo software (FLOWJO, LLC, Ashland, OR, USA). […]
Data were analyzed with GraphPad Prism 7 software. Differences were assessed by unpaired or paired Student t tests if not indicated otherwise. […]

CDK4 = CDK4 (Homo sapiens, UniProt P11802); test: FRET-based LANCE Ultra in vitro enzymatic kinase assay, CDK4; assay type: biochemical
CDK4, sequence (P11802 whole entry): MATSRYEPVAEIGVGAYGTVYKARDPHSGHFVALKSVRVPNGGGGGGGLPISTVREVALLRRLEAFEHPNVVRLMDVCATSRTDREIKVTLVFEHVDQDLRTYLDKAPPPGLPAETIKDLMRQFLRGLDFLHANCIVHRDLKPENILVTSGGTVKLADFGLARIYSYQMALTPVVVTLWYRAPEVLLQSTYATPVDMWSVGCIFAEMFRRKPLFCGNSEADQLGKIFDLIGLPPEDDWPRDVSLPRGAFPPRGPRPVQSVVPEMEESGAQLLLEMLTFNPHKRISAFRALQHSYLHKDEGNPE
CDK4, sequence (P24385 whole entry partner): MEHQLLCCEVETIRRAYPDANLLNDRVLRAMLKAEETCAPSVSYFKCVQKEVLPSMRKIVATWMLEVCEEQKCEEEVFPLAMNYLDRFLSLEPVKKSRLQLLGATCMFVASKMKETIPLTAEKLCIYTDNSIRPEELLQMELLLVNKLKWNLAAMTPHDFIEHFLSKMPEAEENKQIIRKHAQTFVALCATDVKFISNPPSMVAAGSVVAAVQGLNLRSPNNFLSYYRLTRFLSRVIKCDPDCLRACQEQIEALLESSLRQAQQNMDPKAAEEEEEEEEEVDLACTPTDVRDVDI
Experimental: (§1) IC50 values for CDK inhibitors were determined using the fluorescence resonance energy transfer (FRET)-based LANCE Ultra KinaSelect Ser/Thr kit (Perkin Elmer). Kinase activity and inhibition were measured according to the manufacturer’s instructions and as previously described. […] FRET signals were recorded in a time-resolved manner in a Perkin Elmer EnVision reader. Purified cyclin-kinase pairs were obtained from the following suppliers: Carna Biosciences (CDK1-Cyclin B1, CDK6-Cyclin D3, CDK7-Cyclin H-MAT1), ProQinase (CDK2-Cyclin A) and Invitrogen (CDK9-Cyclin T1).
(§2) Data were analyzed with GraphPad Prism 7 software. Differences were assessed by unpaired or paired Student t tests if not indicated otherwise. Two-sided probabilities of less than 0.05 were considered significant. Nonlinear regression sigmoidal dose-response curve fit was used to determine the IC50 values and to generate graphs.

CDK2-Cyclin A = target: T1, CDK2-Cyclin A (Homo sapiens, UniProt P24941); test: FRET-based LANCE Ultra in vitro enzymatic kinase assay, CDK2; assay type: biochemical
T1 construct: purchased ProQinase
Experimental: as §1, §2

COc1cc(F)ccc1-c1ncnc(Nc2cccc(CS(N)(=O)=O)c2)n1 [LDC526, (3-((4-(4-fluoro-2-methoxyphenyl)-1,3,5-triazin-2-yl)amino)phenyl)methane-sulfonamide]
IC50 ([1]; 24 hours incubation): 900 nM
IC50 ([1]; 48 hours incubation): 1480 nM
selectivity versus CDK9 compared to CDK4 (CDK4): 291 fold
selectivity versus CDK9 compared to CDK2 (CDK2-Cyclin A): 52 fold
